Assays:
[1] = in pharmaceutically acceptable carriers; cited from earlier work
human subjects = assay: Forearm blood flow (FBF) after infusion into forearm arteries of human subjects; format: in vivo; settings: for forearm blood flow (FBF) before infusion (baseline): baseline value before forearm artery infusion; for forearm blood flow (vasodilation) at calculated equimolar concentrations: forearm artery infusion, calculated equimolar 1 μmol/min
Experimental: Blood pressure, heart rate, and respiration were continuously monitored throughout the administration. A physician was present throughout the study and monitored for side effects. At the end of each infusion period, the forearm blood flow (FBF) of each subject was then measured by standard techniques.
A physician was present, and the subject was monitored throughout the infusion, as in Example 1.

[2] = uptake by nucleoside transporter in red blood cells; cited from earlier work
[3] = forearm artery infusion 0.125 mg/min for 15 minutes

Nc1ncnc2c1ncn2[C@@H]1O[C@H](COP(=O)(O)O)[C@@H](O)[C@H]1O [AMP, Adenosine 5′-monophosphate]
limit of solubility [1]: approximately 400 mg/ml | vasodilation compared with adenosine at calculated equimolar concentrations (human subjects; 1 μmol/min, p<0.02): significantly greater vasodilation | forearm blood flow (FBF) before infusion (baseline) (human subjects): 3.8±0.5 ml/100 ml/min | forearm blood flow (FBF) at end of infusion (human subjects; [3]): 16.3±1.6 ml/100 ml/min | forearm blood flow (FBF) at end of infusion (human subjects; forearm artery infusion 0.5 mg/min for 15 minutes): 20.7±1.8 ml/100 ml/min | forearm blood flow (vasodilation) at calculated equimolar concentrations (human subjects): 19.4±1.8 ml/100 ml/min

Nc1ncnc2c1ncn2[C@@H]1O[C@H](CO)[C@@H](O)[C@H]1O [adenosine, reference compound]
half-life in blood [2]: less than 1 second | limit of solubility [1]: approximately 5 mg/ml | forearm blood flow (FBF) before infusion (baseline) (human subjects): 3.1±0.2 ml/100 ml/min | forearm blood flow (FBF) at end of infusion (human subjects; [3]): 14.2±2.0 ml/100 ml/min | forearm blood flow (vasodilation) at calculated equimolar concentrations (human subjects): 15.6±1.9 ml/100 ml/min

Source: patent US20060079479A1, “Methods of inducing vasodilation” (priority 2004, published 2006)
